Data on 88 compounds can be found in PubChem BioAssay AID489023 (Sanford-Burnham Center for Chemical Genomics, 2010).

The test system of this assay is 697B cells, BCR-induced NF-kB luciferase reporter luminescence. Kind of assay: B-cell receptor NF-kB reporter inhibition – 697B cells, luciferase luminescence, dose response (AID 489023).

The source made the active and inactive calls. The rule behind the calls is not given here.

A word on the IC50: it is the concentration that gives 50% inhibition. Turning to `O=C(N/N=C/c1cccnc1)c1cc(-c2ccccc2OCc2ccccc2)n[nH]1`, the concentration for half-maximal inhibition (IC50) was 6.82 µM.

Turning to `Cc1ccc(Nc2nc(N/N=C\c3ccc4c(c3)OCO4)nc(N3CCOCC3)n2)cc1`, the concentration for half-maximal inhibition (IC50) is 3.11 µM.

`Cc1ccc(/C=C2\SC(=S)N(CCCC(=O)NC3CCCC3)C2=O)cc1`: the IC50 is 1.13 µM.

For `Cc1ccc(S(=O)(=O)Nc2ccc3c(c2)n(C)c(=O)n3C)cc1`, the IC50 is > 80 µM (inactive).

On to `Oc1cc(O)cc(-c2cc3ccc(O)cc3o2)c1`, for which the IC50 is > 80 µM (inactive).

In the case of `COc1ccc(Cc2nc(-c3ccc(NC(=O)c4cccnc4)cc3)no2)cc1`, the IC50 is > 80 µM (inactive).

On to `Cc1nn(C(C)(C)C)c(C)c1/C=N/OC(=O)Nc1ccc(Cl)c(Cl)c1`, for which the IC50 was 0.74 µM.

Turning to `COc1cccc(/C=C2\SC(=S)N(CCCC(=O)NC3=NCCS3)C2=O)c1`, the IC50 is 56.3 µM (inactive).

Consider `Cc1ccc(/C=C2\SC(=S)N(CCC(=O)NNC(=O)c3ccncc3)C2=O)cc1`, for which the IC50 was > 80 µM (inactive).

For the compound `Cc1[nH]c2ccccc2c1/C=N/Nc1nc(Nc2ccc(F)cc2)nc(N2CCOCC2)n1`, the IC50 was 1.22 µM.

In the case of `C=CCn1c(O)c(C(C)=NC(C)c2ccccc2)c(=O)[nH]c1=O` (stereo not drawn), the IC50 was > 80 µM (inactive).

Turning to `COC(=O)c1cc(NC(=O)Nc2cc(OC)ccc2OC)cc(C(=O)OC)c1`, the IC50 was > 80 µM (inactive).

For the compound `CCOC(=O)c1cc2c(=O)n3ccccc3nc2n(CC(C)C)c1=NC(=O)c1c(-c2c(F)cccc2Cl)noc1C`, the IC50 was > 80 µM (inactive).

`CCN(CC(=O)Nc1c(F)cccc1F)C(=O)c1cc(S(=O)(=O)N2CCOCC2)ccc1N1CCCC1`: the IC50 was 12.7 µM.

As for `CC1=CC(C)(C)Nc2ccc(OC(=O)c3cccnc3)cc21`, the IC50 was 14.3 µM.

On to `O=C(O)COc1ccc(-c2nccc(-c3ccccn3)n2)cc1`, for which the IC50 was 21.7 µM (inactive).

As to `Cn1nc(-c2ccc(Cl)cc2)c2cc(C(=O)N3CCCC3)sc21`, the IC50 was > 80 µM (inactive).

As to `COc1cc(OC)cc(-c2cc3nc(C)c(CCC(=O)Nc4nc(C)cs4)c(C)n3n2)c1`, the IC50 was 13.2 µM.

Consider `COc1ccc(-c2noc(N3CCC(C(=O)Nc4cccc(OC)c4)CC3)n2)cc1`, for which the IC50 was > 80 µM (inactive).

In the case of `Cc1cc(OC(=O)c2ccccc2Cl)cc(=O)n1C`, the IC50 was > 80 µM (inactive).

As to `CCc1ccc(/C=C2/SC(=S)N(CCC(=O)Nc3cccnc3)C2=O)cc1`, the IC50 is 0.85 µM.

Consider `CNC(=O)CCc1nc(-c2ccc(C(C)(C)C)cc2)no1`, for which the IC50 is less than 0.16 µM.

Consider `Cn1c(=O)cc(OCC(=O)N2CCC3(CC2)OCCO3)c2ccccc21`, for which the IC50 is 67.5 µM (inactive).

As to `COc1cc(Br)c(C(=O)c2nccc3cc(OC)c(OC)cc23)cc1OC`, the IC50 is > 80 µM (inactive).

For the compound `CCCN1C(=O)/C(=C/c2c(N3CCNC(=O)C3CC(=O)OCC)nc3c(C)cccn3c2=O)SC1=S` (stereo not drawn), the IC50 is 5.89 µM.

For the compound `Cc1ccc(-c2nn3c(C)nnc3c3ccccc23)cc1S(=O)(=O)N1CCN(CCO)CC1`, the IC50 is 26.5 µM (inactive).

Consider `O=C(N/N=C/c1ccc(Cl)cc1Cl)c1ccc(-n2cnnn2)cc1`, for which the IC50 is > 80 µM (inactive).

As for `COc1cc2c3c(c1)c(N=NC(N)=S)c(O)n3C(C)(C)C=C2C`, the IC50 was > 80 µM (inactive).

As for `CC(C)(C)c1ccc(-c2nnc(SCC(=O)NC3CC3)o2)cc1`, the IC50 is > 80 µM (inactive).

As for `CC(C)(O)/C=C/C(=O)[C@](C)(O)C1[C@H](O)C[C@@]2(C)C3CC=C4C(C[C@H](O)[C@@H](O)C4(C)C)[C@]3(C)C(=O)C[C@]12C` (stereo partly drawn), the IC50 is 35.1 µM (inactive).

`COC(=O)C1=C(c2ccc(-c3ccccc3)c(F)c2)C[C@@H]2CC[C@H]1N2C(=O)N1CCCC1`: the IC50 was 73.9 µM (inactive).

For `NC(=S)N=Nc1c(O)n(Cc2ccccc2)c2ccccc12`, the IC50 is 16.3 µM.

For the compound `Cc1ccc(-c2cn(-c3ccccc3)c3[n+]2CCCS3)cc1`, the IC50 was > 80 µM (inactive).

Take `CC(=C\c1ccccc1)/C=C1/SC(=O)N(CCCC(=O)Nc2ccc(C(=O)O)cc2)C1=O`: the IC50 was 0.64 µM.

In the case of `COc1ccc(-c2nn(C)c(=O)c3ccccc23)cc1NS(C)(=O)=O`, the IC50 is 39.9 µM (inactive).

In the case of `Cc1cc(C)c(CN2CCN(C(=O)Cn3cnc4c(NCc5ccccc5)ncnc43)CC2)c(C)c1`, the IC50 was 52.7 µM (inactive).

Regarding `O=C(CCCN1C(=O)/C(=C/c2ccccc2Cl)SC1=S)NNC(=O)c1ccc(Cl)cc1`, the IC50 was 30.7 µM (inactive).

On to `CCn1c(=O)cc(OCC(=O)N(C)C2CCCCC2)c2ccccc21`, for which the IC50 is > 80 µM (inactive).

As to `COc1ccc(-c2n(Cc3ccccc3)c3ccccc3[n+]2Cc2ccccc2)cc1`, the IC50 was > 80 µM (inactive).

Turning to `CC(C)(C)c1ccc(-c2noc(CCC(=O)Nc3cccnc3)n2)cc1`, the IC50 is less than 0.16 µM.

For `Cc1ccc(O)c(NC(=O)COc2cc(C)ccc2C)c1`, the IC50 was > 80 µM (inactive).

Turning to `COc1ccc(/C=C2\SC(=S)N(CCCC(=O)NNC(=O)c3ccccc3O)C2=O)cc1`, the IC50 was 0.68 µM.

Take `Cc1ccc(C(=O)CSc2nnc(COc3cccc(C)c3)o2)cc1`: the IC50 is > 80 µM (inactive).

`O=C(CCl)N(c1ccc(Cl)cc1)c1c[nH]c2ccccc12`: the half-maximal inhibitory concentration (IC50) is 0.27 µM.

As for `Cn1c(=O)n(C)c2cc(NC(=O)CSc3nnc(-c4ccccc4O)n3-c3ccccc3)ccc21`, the IC50 is > 80 µM (inactive).

As to `Cn1c(=O)cc(SCC(=O)N2CCCC2)c2cc(Cl)ccc21`, the IC50 was > 80 µM (inactive).

Regarding `Cc1ccc(/C=C2\SC(=S)N(CCCC(=O)Nc3ccc(O)cc3)C2=O)cc1`, the IC50 is 0.27 µM.

In the case of `O=C(CN1C(=O)c2ccccc2S1(=O)=O)c1ccc(OC(F)F)cc1`, the IC50 is 1.83 µM.

In the case of `COc1ccc(NC(=O)c2nnn(Cc3cccc(F)c3)c2N)c(OC)c1`, the IC50 is > 80 µM (inactive).

`CC1(c2nnc(-c3cccc(Cl)c3)o2)CC(c2cccc(Cl)c2)=NO1` (stereo not drawn): the IC50 was > 80 µM (inactive).

With `Cc1nc2cc(-c3ccccc3)nn2c(C)c1CCC(=O)NCc1ccco1`, the IC50 is > 80 µM (inactive).

`Cn1c(=O)cc(Nc2ccccc2)c2c(=O)n(-c3ccccc3)c(=O)n(-c3ccccc3)c21`: the 50% inhibitory concentration (IC50) was 5.6 µM.

As for `Cc1ccc(S(=O)(=O)N2CCCCC2CCNC(=O)C(=O)NCc2ccncc2)cc1` (stereo not drawn), the IC50 was 11 µM.

With `O=C(Oc1cccc(/C=N/Nc2nc(Nc3ccccc3)nc(N3CCOCC3)n2)c1)c1ccco1`, the 50% inhibitory concentration (IC50) is 2.99 µM.

For the compound `CC(C)(C)c1ccc(-c2noc(CCC(N)=O)n2)cc1`, the half-inhibitory concentration (IC50) is less than 0.16 µM.

In the case of `COc1ccccc1/C=C1/SC(=S)N(CCC(=O)Nc2cccnc2)C1=O`, the IC50 was 9.65 µM.

Regarding `O=C(NCCCN1CCOCC1)c1cc(-c2ccc(Br)cc2)on1`, the IC50 is 48.1 µM (inactive).

On to `COc1ccc(/C=C2\SC(=S)N(CCCC(=O)Nc3ccc(O)cc3)C2=O)cc1`, for which the IC50 was 1.27 µM.

For `CCC(=O)N1c2ccccc2[C@@H](N(C(C)=O)c2ccccc2)C[C@H]1C`, the IC50 was 58.2 µM (inactive).

`CCC(C)NC(=O)c1c(N)n(/N=C/c2ccccn2)c2nc3ccccc3nc12` (stereo not drawn): the IC50 was 23.2 µM (inactive).

Turning to `CCOC(=O)CNC(=O)CSc1nnc(NC(=O)c2ccc(C)cc2)s1`, the IC50 is 6.84 µM.

Turning to `CCC(C)(C)c1ccc(OCCCC[n+]2ccccc2)c(C(C)(C)CC)c1`, the IC50 is 18.2 µM.

Regarding `CSc1ccc(-c2nc(CSCC(=O)NC3CC3)c(C)o2)cc1`, the IC50 is 2.44 µM.

With `CCn1c(=O)cc(SCC(=O)N2CCN(C(=O)c3ccco3)CC2)c2ccccc21`, the IC50 was > 80 µM (inactive).

As for `Cc1nc(Nc2c(Cl)cccc2Cl)sc1C(=O)Nc1ccccc1`, the IC50 was 50.1 µM (inactive).

Take `Cc1cccc(C(=O)Nc2ccc(CC(=O)O)cc2)c1`: the IC50 was 24.1 µM (inactive).

Turning to `Cc1ccc(-c2nn3c(C)nnc3c3ccccc23)cc1S(=O)(=O)NCc1ccco1`, the IC50 is 29.3 µM (inactive).

In the case of `Cc1csc(NC(=O)/C=C/c2ccc3c(c2)OCO3)n1`, the IC50 was 6.13 µM.

Regarding `Cc1ccc(C(=O)NNC(=O)CCCN2C(=O)/C(=C/c3ccccc3Cl)SC2=S)cc1`, the IC50 was 22 µM (inactive).

Regarding `COc1ccc(-c2nc(CSCC(=O)NCc3ccco3)c(C)o2)cc1`, the IC50 was 9.47 µM.

`COc1ccc(-c2csc3nc(-c4cccnc4)nc(N4CCC(C(N)=O)CC4)c23)cc1OC`: the IC50 is 44.2 µM (inactive).

Turning to `Cc1ccc(NC(=O)O/N=C/c2c(C)nn(C(C)(C)C)c2C)cc1Cl`, the IC50 is less than 0.16 µM.

`N=c1c2c(n(Cc3ccc(Cl)c(Cl)c3)c3c1CCC3)CCCC2`: the IC50 is 31.1 µM (inactive).

Regarding `CCc1ccc(/C=C2\SC(=S)N(CCCC(=O)Nc3ccccn3)C2=O)cc1`, the IC50 was 0.55 µM.

As for `Cc1ccc(C)c(OCc2ccc(C(=O)NN)o2)c1`, the IC50 was > 80 µM (inactive).

`C=CCOC(=O)COc1cc(C)cc2oc(=O)c3c(c12)CCC3`: the IC50 was > 80 µM (inactive).

Regarding `N=c1ccn(Cc2c(Cl)cccc2Cl)cc1`, the IC50 is > 80 µM (inactive).

On to `Cn1nnnc1Sc1ncnc2scc(Br)c12`, for which the IC50 was 0.67 µM.

`Cc1nn(C)c(C)c1CN(C)S(=O)(=O)c1ccc2ccccc2c1`: the IC50 is > 80 µM (inactive).

As to `Cc1ccccc1Nc1nc(Cl)c(C=O)s1`, the IC50 was > 80 µM (inactive).

On to `O=C(NCCC1CCCCN1S(=O)(=O)c1ccc(Cl)cc1)C(=O)NCc1ccncc1` (stereo not drawn), for which the IC50 is 4.22 µM.

Consider `O=C(CN1C(=O)c2ccccc2S1(=O)=O)c1ccc(Cl)cc1Cl`, for which the IC50 was 0.44 µM.

In the case of `CCN(CC)CCOC(=O)c1ccc(NC(=O)CCCN2C(=O)S/C(=C/c3ccc(OC)cc3)C2=S)cc1`, the IC50 was 2.11 µM.

As for `COc1ccc(C(=O)N/N=C/c2ccc(OC)c(CN3CCCc4ccccc43)c2)cc1`, the IC50 was > 80 µM (inactive).

Regarding `Cc1ccc(/C=C2\SC(=S)N(CCCC(=O)NNC(=O)c3ccccc3O)C2=O)cc1`, the IC50 is 1.26 µM.

For `COc1ccc(S(=O)(=O)Nc2cc3c(C(C)=O)c(C)oc3c3ccccc23)cc1`, the IC50 is > 80 µM (inactive).

Consider `CC(=O)Nc1ccc(Nc2nc(-c3sc(NC(C)=O)nc3C)cs2)cc1`, for which the IC50 was 2.12 µM.

In the case of `COC(=O)CSc1nnc(-c2sc3ccccc3c2Cl)o1`, the IC50 is 10.3 µM.
